# Reference: PMC6270099, “Synthesis, Biological Evaluation, and Pharmacokinetic Study of Novel Liguzinediol Prodrugs” (Molecules, 2013)
# Marks after values point to notes of the source that are not given here.
# Columns and labels:
# [1] = tested on: isolated Langendorff-perfused rat hearts; assay: Ex vivo Langendorff-perfused rat heart, cardiac performance; details: for ∆% +dP/dtmax / ∆% LVDP / ∆% −dP/dtmax: increase vs. control; for LVDP: isolated rat heart, mean ± SD, n = 6
# Method: The cardiac contractility and safety of prodrugs 3–5 were evaluated on the myocardium in normal isolated rat hearts with LZDO as a positive control. Prodrugs 3–5 exerted positive inotropic effects in a dose-dependent manner. The increased rate in left ventricular developed pressure (LVDP, accepted as contractile force), +dP/dtmax (used as an index of contractility), the maximum rate of pressure decrease of the left ventricle ([…], used as an index of diastolic function) and the heart rate (HR, used as an index of heart muscle oxygen consumption) of these compounds vs. control are listed in Table 1.
# All commercial reagents and solvents were used without further purification unless otherwise specified. Melting points were determined using a model Buchi B-450 apparatus. ESI-MS were recorded on a TOF mass spectrometer (Applies-Biosystem Mariner). IR spectra were acquired by using a THERMO IR spectrometer Model Nicolet-100. ^1H- and ^13C-NMR spectra (500/125 MHz) were recorded on a Bruker Advance 500 spectrophotometer. Mass spectra were recorded on a ZAB-HS mass spectrometer and are reported as m/z values. HPLC analysis was conducted on a Waters 2695 HPLC instrument equipped with a UV detector (model 2489). LZDO and prodrugs 3–5 were analysed by HPLC, and their purity was confirmed to be greater than 98.0%. In vitro metabolic stability analysis was conducted by a HPLC method, using stock standard solutions of LZDO and prodrugs that were prepared in water at a concentration of 30 mM. The positive inotropic effects on the myocardium of LZDO and prodrugs 3–5 in vitro were evaluated on Langendorff-perfused hearts isolated from normal Sprague-Dawley rats. A HPLC method was applied to measure the rat plasma concentrations of LZDO and prodrug 3 after intragastric administration of prodrug 3 in the rats.
# Sprague-Dawley adult male rats weighing 260–320 g were anaesthetised by intraperitoneal administration of 20% urethane (1.2 g/kg). The hearts were quickly removed and placed into an ice-cold modified buffer until contractions ceased. The heart was cleaned of surrounding tissues, mounted on the aortic cannula of the Langendorff perfusion system apparatus, and perfused with oxygenated buffer (mM): NaCl 117, KCl 5.7, CaCl2 1.8, MgCl2 1.7, NaHCO3 4.4, NaH2PO4 1.5, HEPES 20 and glucose 11. The buffer was equilibrated with 95% O2 and 5% CO2 and adjusted to pH 7.4 with NaOH before it entered the heart. An epicardial electrogram was registered using two stainless steel electrodes, one attached to the apex of the heart and the other to the aortic cannula. To obtain an isovolumetrically beating preparation, a latex balloon filled with water and connected by a catheter to a transducer was inserted through the left atrium into the left ventricle and inflated to provide an end-diastolic pressure between 8 and 12 mm Hg. Before each experimental protocol was initiated, the isolated hearts were set at a mean arterial pressure of 60–80 mm Hg and allowed to stabilise at 37 °C for 40–60 min. The isolated rat hearts were then perfused in sequence with 1, 10, and 100 μM of LZDO and prodrugs 3–5 in each group. A RM6240B/C four channel physiological recording instrument (Chengdu Instrument Factory, Chengdu, China) was used for continuous recording of LVSP, LVEDP, HR (derived from electrogram), +dP/dtmax and −dP/dtmax throughout the experiments. The criteria for established stability were LVDP > 50 mmHg, +dP/dtmax > 1,600 mmHg·s^−1, heart rate > 180 beats·min^−1 and normal sinus rhythm. The hearts were not studied if they had weak contractility (+dP/dtmax < 1,600 mmHg·s^−1) and severe arrhythmia. Diastolic balloon pressure was maintained at 8 mmHg. LVDP was calculated as the difference between the systolic and diastolic pressures. The results are expressed as the mean value of hemodynamic variables (n = 6). Statistical analysis was performed using SPSS for Windows (version 13.0). Data were analyzed by One-way ANOVA. […]
# [2] = Metabolic stability and formation of parent compound in rat liver microsomes; assay type: in vitro ADME; details: NADPH, 37 °C, up to 3 h
# Method: Analysis was performed by using a Waters Alliance HPLC system (2695 pump, and 2489 PDA detector) with the following chromatographic parameters: wavelength, 278 nm; injection volume, 20 μL; run time, 20 min. The chromatographic separation was performed on an Phecda C18 (4.6 mm × 250 mm, 5 μm) column with a gradient elution of methanol and deionized water. Flow rate was 1.0 mL/min at 30 °C.
# Rat liver microsomes were prepared in house by a previously published method and used immediately in the experiments. Protein concentrations were determined by a Lowry protein assay.
# Rat liver microsomes (2.0 mg/mL protein concentration), NADPH (1.0 mM solution, Sigma, Shanghai, China), Tris-HCl buffer (50 mM, pH 7.4, Sigma, Shanghai, China), test compound in aqueous solution (30 mM, 20 μL).
# Tris-HCl buffer (780 μL), 1.0 mM NADPH solution (100 μL), and 100 μL of rat liver microsomes were mixed and vortexed at 37 °C for 5 min. To this mixture, 30 mM drug in aqueous solution (20 μL) was injected and vortexed well. Sample (100 μL) was immediately taken out (0 min) and transferred to the centrifuge tube containing ice cold dissolvent (ethanol-ethyl acetate = 1:4 v/v, 1 mL). […] The percentage of prodrug remaining was calculated according to the following equation: % remaining = peak area at respective time (min)/peak area at 0 min × 100% (2)
structure (smiles),measurement,setting,value
"Cc1nc(CO)c(C)nc1CO [1a, Liguzinediol]",+dP/dtmax,[1]; 1 μM,"1,836 ± 121 mmHg/s"
same,HR,[1]; 1 μM,186 ± 29 beat·min^−1
same,−dP/dtmax,[1]; 1 μM,"−1,175 ± 125 mmHg/s"
same,∆% +dP/dtmax,[1]; 1 μM,9.4 ± 8.1%
same,∆% LVDP,[1]; 1 μM,19.4 ± 11.0%
same,∆% −dP/dtmax,[1]; 1 μM,11.1 ± 10.0%
same,LVDP,[1]; 1 μM,60 ± 5 ^b mmHg
same,+dP/dtmax,[1]; 10 μM,"2,125 ± 242 ^bc mmHg/s"
same,HR,[1]; 10 μM,209 ± 21 beat·min^−1
same,−dP/dtmax,[1]; 10 μM,"−1,371 ± 186 ^bc mmHg/s"
same,∆% +dP/dtmax,[1]; 10 μM,26.5 ± 13.4%
same,∆% LVDP,[1]; 10 μM,45.6 ± 9.0%
same,∆% −dP/dtmax,[1]; 10 μM,30.3 ± 0.3%
same,LVDP,[1]; 10 μM,73 ± 4 ^bd mmHg
same,+dP/dtmax,[1]; 100 μM,"2,702 ± 287 ^bdf mmHg/s"
same,HR,[1]; 100 μM,193 ± 15 beat·min^−1
same,−dP/dtmax,[1]; 100 μM,"−1,911 ± 200 ^bdf mmHg/s"
same,∆% +dP/dtmax,[1]; 100 μM,60.9 ± 17.3%
same,∆% LVDP,[1]; 100 μM,76.3 ± 12.3%
same,∆% −dP/dtmax,[1]; 100 μM,82.0 ± 27.9%
same,LVDP,[1]; 100 μM,88 ± 3 ^bdf mmHg
same,metabolic stability,[2],fairly stable
